Common to all, as to format: cell-based
Experiment [1] deals with T1, GPR174 (Homo sapiens, UniProt Q9BXC1). Kind of experiment: Cellular redistribution assay (CRA) for GPR174. Particulars: multiple values = separate experiments. The source says: One method for identifying compounds capable of modulating a receptor is using a cellular redistribution assay (“CRA”). Exemplary CRA methods are found in U.S. Pat. No. 7,309,576 issued to O'Dowd et al. and in O'Dowd et al., J. Biomol. Screen. 12:175-85,2007. […] Incorporation of the NLS alters the cellular localization of the GPCR, such that the majority of the NLS-modified receptor is present in the cell interior. An NLS-modified GPCR, when interacting with a functionally active compound, is mostly localized on the cell surface. Thus, it becomes possible to identify receptor modulators without knowledge of the endogenous ligand or a surrogate ligand.
The inventors have identified a number of compounds that inhibit GPR174 using a CRA assay similar to that described in U.S. Pat. No. 7,309,576 and in O'Dowd et al., J. Biomol. Screen. 12:175-85, 2007. These compounds are described in detail below.
The inventors used a CRA similar to that described in U.S. Pat. No. 7,309,576 and O'Dowd et al., J. Biomol. Screen. 12:175-85, 2007 to identify compounds that are capable of interacting with GPR174 using a library of approximately 370,000 chemical entities. Briefly described, the CRA assay described in U.S. Pat. No. 7,309,576 involves artificially inserting a NLS into the dopamine D1 receptor (DRD1), which allows the receptor to traffic from the cell membrane to the cell interior, and that the binding of antagonists to the receptor retained the receptor at the cell surface, while removal of the ligand allowed the receptor to continue to internalize from the cell surface. Both antagonists and agonists that selectively bound the receptor retained the receptor on the plasma membrane. GPR174 constructs were generated for use in a CRA-based compound screening assay. From this screen, the inventors initially identified compounds of formula I-VI, as described herein and included in Table 1.
Target sequence in this assay (Q9BXC1 1-292 limits assumed): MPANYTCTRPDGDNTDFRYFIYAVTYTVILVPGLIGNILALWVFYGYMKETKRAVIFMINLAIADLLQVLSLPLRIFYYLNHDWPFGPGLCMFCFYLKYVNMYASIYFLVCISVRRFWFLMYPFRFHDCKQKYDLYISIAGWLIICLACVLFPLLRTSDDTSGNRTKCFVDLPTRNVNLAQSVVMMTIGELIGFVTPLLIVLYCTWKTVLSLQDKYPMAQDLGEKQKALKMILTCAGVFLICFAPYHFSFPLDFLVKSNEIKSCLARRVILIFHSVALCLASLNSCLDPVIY

The target of experiment [2] is T1, GPR174. Kind of experiment: CRE-Luc reporter Gs signaling assay with GPR174. Set-up: host or cells: HEK293 or CHO cell lines (ATCC). The following applies: for Fold decrease in Gs signaling activity / EC50 / Human GPR174 CRE Activity: nature of the compound (IA, antagonist, NM): pCRE-Luc reporter; for EC50: multiple values = separate experiments; for Gs pathway in the presence of GPR174 (CRE-Luc reporter): increasing concentrations of compound.
Target sequence in this assay (Q9BXC1 whole entry): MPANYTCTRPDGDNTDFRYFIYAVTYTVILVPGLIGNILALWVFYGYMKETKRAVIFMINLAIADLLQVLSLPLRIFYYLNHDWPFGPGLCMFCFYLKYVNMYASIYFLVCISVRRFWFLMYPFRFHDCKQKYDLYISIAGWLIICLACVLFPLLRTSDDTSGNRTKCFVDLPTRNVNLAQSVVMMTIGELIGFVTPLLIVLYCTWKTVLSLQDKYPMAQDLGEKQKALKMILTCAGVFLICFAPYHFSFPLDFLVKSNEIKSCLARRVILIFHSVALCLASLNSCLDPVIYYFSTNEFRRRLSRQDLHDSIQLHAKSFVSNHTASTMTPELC

The target in another experiment is T2, ADBR2 (Homo sapiens, UniProt P07550).
T2 construct: host or cells: HEK293 or CHO cell lines (ATCC)
Kind of experiment: CRE-Luc reporter assay with control receptor ADBR2. As for the experimental part:
The DNA/lipofectamine 2000 mix (3000 μL) was incubated at room temperature for 30 minutes and then added into a 10 cm culture dish (Corning, NY) containing 70-90% confluent cultured cells, (HEK293 or CHO cell lines (ATCC, VA)), in 15 mL of media. […] The cells were further incubated at 37° C. for various times. The media were removed and the cells lysed.
Compounds were tested in the reporter system with increasing concentrations of GPR174-interacting compounds.
The DNA/lipofectamine 2000 mix (3000 μL) was incubated at room temperature for 30 minutes and then added into a 10 cm culture dish (Corning, NY) containing 70-90% confluent cultured cells, typically HEK293 or CHO cell lines (ATCC, VA), in 15 mL of media. […] Media (26 mL) were added to the detached cells and 120 μL of transfected cells were transferred to each well on a 96-well plate. Increasing concentration of each compound in DMSO (1.2 μl) was added to the cells after plating into the 96-well plate. The cells were further incubated at 37° C. for various times. The media were removed, and the cells lysed.
ADBR2 is a GPCR, like GPR174, that activates the Gs signaling pathway.

The text below walks through data of patent US20200345725A1, “Methods and Compositions for Treating Cancer” (Omeros Corporation, priority 2019, published 2020).

The structures appear in SMILES notation. Values joined by “and” are separate entries in the source; they are usually repeats but may differ in a detail not shown here. Equal entries are not always repeated. “Also recorded” adds a separate entry of the source.

T2 sequence (P07550 whole entry): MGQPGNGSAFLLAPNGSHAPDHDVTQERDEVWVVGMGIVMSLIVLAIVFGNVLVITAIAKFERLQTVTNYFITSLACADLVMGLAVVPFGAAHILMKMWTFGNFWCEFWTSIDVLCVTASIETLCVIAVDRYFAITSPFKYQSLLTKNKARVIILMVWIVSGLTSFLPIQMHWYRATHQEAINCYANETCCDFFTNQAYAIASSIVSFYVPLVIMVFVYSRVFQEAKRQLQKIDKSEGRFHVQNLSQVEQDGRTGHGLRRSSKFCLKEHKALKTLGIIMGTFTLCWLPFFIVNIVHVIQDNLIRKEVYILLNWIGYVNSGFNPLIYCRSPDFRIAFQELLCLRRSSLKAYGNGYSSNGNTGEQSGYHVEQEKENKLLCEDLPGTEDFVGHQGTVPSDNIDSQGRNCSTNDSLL

As to `CCCC(=O)N1CCN(c2cc(N3CCCCC3)c(F)cc2[N+](=O)[O-])CC1` [compound 5], the figures for the EC50 on GPR174 [1] and at GPR174 [2] were greater than 1200 nM and 900 nM, respectively. The “Fold decrease in Gs signaling activity” value at GPR174 [2] stood at 2.4 fold.

With `CCOC(=O)N1CCN(c2cc(N3CCCCC3)c(F)cc2[N+](=O)[O-])CC1` [compound 7], the EC50 at GPR174 [1] was greater than 700 nM. Moreover, at GPR174 [2], the “Gs pathway in the presence of GPR174 (CRE-Luc reporter)” value (from here on “Gs pathway in the presence of GPR174”) is “inhibited”; the “Fold decrease in Gs signaling activity” value was determined as 2.4 fold; the EC50 is 300 nM and 500 nM. The “Gs pathway in the presence of ADBR2 (CRE-Luc reporter)” value (shortened to “Gs pathway in the presence of ADBR2”) at ADBR2 is recorded as “did not inhibit”.

`CCC(=O)N1CCN(c2cc(N3CCCCC3)c(F)cc2[N+](=O)[O-])CC1` [compound 9] came in with an EC50 on GPR174 [1] greater than 2000 nM. Further, at GPR174 [2], the “Fold decrease in Gs signaling activity” value is on record as 2.1 fold; the EC50 is 700 nM and 500 nM.

`CC(=O)N1CCN(c2cc(N3CCC(C)CC3)c(F)cc2[N+](=O)[O-])CC1` [compound 13]: the EC50 at GPR174 [1] is greater than 2000 nM; at GPR174 [2], 800 nM and 1200 nM. On GPR174 [2], the “Fold decrease in Gs signaling activity” value is recorded as 2.2 fold.

Turning to `Cc1ccc(-c2nnc(Nc3ccccc3)c3ccccc23)cc1S(N)(=O)=O` [compound 19], on GPR174 [2], the “Gs pathway in the presence of GPR174” value is “did not modulate” and the “Human GPR174 CRE Activity: nature of the compound (IA, antagonist, NM)” value (shortened to “Human GPR174 CRE Activity: nature”) is reported as “Antagonist or allosteric modulator”. Besides, the “Gs pathway in the presence of ADBR2” value at ADBR2 was “did not modulate”.

For `Cc1cc(Cc2ccc(NC(=O)c3cccs3)c(C)c2)ccc1NC(=O)c1cccs1` [compound 21], at GPR174 [2], the “Gs pathway in the presence of GPR174” value is given as “did not modulate” and the “Human GPR174 CRE Activity: nature” value was “GPR174 antagonist or allosteric modulator”. Further, the “Gs pathway in the presence of ADBR2” value at ADBR2 is given as “did not modulate”.

Turning to `COc1ccc(C2C3=C(CCCC3=O)NC3=C2C(=O)c2ccccc23)cc1` (stereo not shown) [compound 22], on GPR174 [2], the “Gs pathway in the presence of GPR174” value is “inhibited”; the “Fold decrease in Gs signaling activity” value stood at 10.2 fold; the EC50 was 1000 nM and 1500 nM. For the same compound, the “Gs pathway in the presence of ADBR2” value at ADBR2 is reported as “did not inhibit”.

For `CCOc1ccc(C2C3=C(CCCC3=O)NC3=C2C(=O)c2ccccc23)cc1` (stereo not shown) [compound 23], on GPR174 [2], the “Gs pathway in the presence of GPR174” value is “inhibited”; the “Fold decrease in Gs signaling activity” value is 14.1 fold; the concentration for a half-maximal effect (EC50) was 400 nM and 900 nM and 1200 nM and 1000 nM. Also, the “Gs pathway in the presence of ADBR2” value at ADBR2 was “did not inhibit”.

As to `CCCCOc1ccc(C2C3=C(CCCC3=O)NC3=C2C(=O)c2ccccc23)cc1` (stereo not shown) [compound 31], at GPR174 [2], the “Gs pathway in the presence of GPR174” value is “inhibited”, the “Fold decrease in Gs signaling activity” value is reported as 8.9 fold and the EC50 is 1200 nM. In addition, the “Gs pathway in the presence of ADBR2” value at ADBR2 was “did not inhibit”.

As for `O=C1CCCC2=C1C(c1ccc(OCCO)cc1)C1=C(N2)c2ccccc2C1=O` (stereo not shown) [compound 33], at GPR174 [2], the “Gs pathway in the presence of GPR174” value is “inhibited”, the “Fold decrease in Gs signaling activity” value came to 9.2 fold and a half-maximal response (EC50) required 4400 nM. The “Gs pathway in the presence of ADBR2” value at ADBR2 was “did not inhibit”.

Regarding `O=C1CCCC2=C1C(c1ccc3c(c1)OCCO3)C1=C(N2)c2ccccc2C1=O` (stereo not shown) [compound 36], on GPR174 [2], the “Gs pathway in the presence of GPR174” value is listed as “inhibited”, the “Fold decrease in Gs signaling activity” value turned out to be 8.3 fold and a half-maximal response (EC50) required 2600 nM. Besides, the “Gs pathway in the presence of ADBR2” value on ADBR2 is “did not inhibit”.

For `O=C1CCCC2=C1C(c1ccncc1)C1=C(N2)c2ccccc2C1=O` (stereo not shown) [compound 42], at GPR174 [2], the “Gs pathway in the presence of GPR174” value is “inhibited”, the “Fold decrease in Gs signaling activity” value was 4.3 fold and the EC50 stood at 6600 nM. Moreover, on ADBR2, the “Gs pathway in the presence of ADBR2” value was “did not inhibit”.

Turning to `CC(C)Oc1ccc(C2C3=C(CCCC3=O)NC3=C2C(=O)c2ccccc23)cc1` (stereo not shown) [compound 49], at GPR174 [2], the “Fold decrease in Gs signaling activity” value was 14.3 fold and a half-maximal response (EC50) required 600 nM.

With `C=CCOc1ccc(C2C3=C(CCCC3=O)NC3=C2C(=O)c2ccccc23)cc1` (stereo not shown) [compound 50], on GPR174 [2], the “Fold decrease in Gs signaling activity” value worked out at 10.1 fold and the EC50 is 1200 nM.

For the compound `CCOc1cccc(C2C3=C(CCCC3=O)NC3=C2C(=O)c2ccccc23)c1` (stereo not shown) [compound 51], on GPR174 [2], the “Fold decrease in Gs signaling activity” value was found to be 1.7 fold and the EC50 is 1600 nM.

Regarding `CCCCCCOc1ccc(C2C3=C(CCCC3=O)NC3=C2C(=O)c2ccccc23)cc1` (stereo not shown) [compound 52], on GPR174 [2], the “Fold decrease in Gs signaling activity” value amounted to 3.1 fold and a half-maximal effect (EC50) was put at 500 nM.

For `O=[N+]([O-])c1cc(F)c(N2CCCCCC2)cc1N1CCN(S(=O)(=O)c2ccccc2)CC1` [compound 53], at GPR174 [2], the “Fold decrease in Gs signaling activity” value was 3.4 fold and the midpoint of the response, the EC50, lay at 1800 nM.

Regarding `CCc1ccc(C2C3=C(CCCC3=O)NC3=C2C(=O)c2ccccc23)cn1` (stereo not shown) [compound 54], at GPR174 [2], the “Fold decrease in Gs signaling activity” value is reported as 7 fold and the midpoint of the response, the EC50, lay at 2000 nM.

Regarding `CCOc1ccc(C2C3=C(CCCC3=O)NC3=C2C(=O)c2ccccc23)cn1` (stereo not shown) [compound 55], at GPR174 [2], the “Fold decrease in Gs signaling activity” value stood at 7 fold and the 50% effective concentration (EC50) was 600 nM.

Regarding `C=C(C)COc1ccc(NC(=O)Nc2ccccc2)cc1` [compound 56], on GPR174 [2], the “Fold decrease in Gs signaling activity” value was determined as 3 fold; the “Human GPR174 CRE Activity: nature” value is “inverse agonist”; a half-maximal response (EC50) required 500 nM.

As for `O=C(N/N=C/c1cc(Cl)ccc1O)c1ccncc1` [compound 57], the “Human GPR174 CRE Activity: nature” value on GPR174 [2] is “GPR174 antagonists or allosteric modulators; also recorded: Antagonist or allosteric modulator”.

On to `Cc1cc(C(=O)N/N=C/c2cc(Br)ccc2O)c(C)o1` [compound 58], for which the “Human GPR174 CRE Activity: nature” value at GPR174 [2] is reported as “GPR174 antagonists or allosteric modulators; also recorded: Antagonist or allosteric modulator”.

As for `S=C(NCc1ccco1)Nc1ccc(I)cc1` [compound 59], the “Human GPR174 CRE Activity: nature” value on GPR174 [2] is “NM (“NM” refers to “non-modulator.”)”.

As usually defined, the EC50 is the concentration needed to bring the measured effect to its halfway point. A high value points to weaker potency.
